Results on eight compounds are retold here after patent US20260234165A1, “MACROCYCLIC COMPOUNDS, PREPARATION METHOD THEREFOR, AND USE THEREOF” (GENFLEET THERAPEUTICS (SHANGHAI) INC., priority 2004, published 2026).

Common to all, as to assay type: cell-based, human
The subject of experiment [1] is p-ERK in NCI-H441 cells (KRAS G12V mutation). The experiment in a line: Cell p-ERK assay (HTRF) in NCI-H441 cells. As to conditions: NCI-H441 cells, 3 h compound incubation, HTRF p-ERK T202/Y204, read-out: H441 p-ERK IC50. In short, it runs like this:
(§1)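 In this cellular format, endogenous KRAS-mutant lines grown in RPMI-1640 plus 10% FBS received graded compound concentrations for 3 h at 37 °C. Lysates were incubated 4 h with the phospho-T202/Y204 ERK HTRF antibody pair, and percent inhibition relative to DMSO and blank wells was curve-fitted to give IC50.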

Experiment [2] relates to p-ERK in AsPC-1 cells (KRAS G12D mutation). Briefly: Cell p-ERK assay (HTRF) in AsPC-1 cells. The conditions noted are these: AsPC-1 cells, 3 h compound incubation, HTRF p-ERK T202/Y204, read-out: AsPC-1 p-ERK IC50. The method, boiled down: as §1
The test system of experiment [3] is AsPC-1 cells (KRAS G12D mutation). Briefly: 3D cell proliferation assay (CellTiter Glo-3D), AsPC-1. The conditions noted are these: medium with 2% FBS, read-out: AsPC-1 AP IC50. From the text:
MIA PaCa-2 cells were purchased from ATCC, Cat. No. CRL-1420; AsPC-1 cells were purchased from ATCC, Cat. No. CRL-1682; NCI-H441 cells were purchased from ATCC, Cat. No. HTB-174: NCI-H1975 cells were purchased from ATCC. Cat. No. CRL-5908; DMEM medium was purchased from Gibco, Cat. No. 11995-065: RPMI-1040 medium was purchased from Gibco. Cat. No. H 18754093; FBS was purchased from Gibco, Cat. No. 10099-141C. penicillin, streptomycin double-antibiotic solution (PS) was purchased from Gibco, Cat. No. 15140-122; Horse serum was purchased from Gibco. Cat. No. 16050130: trypsin (containing EDTA) was purchased from Gibco, Cat. No. 25200-072; DMSO was purchased from VWRAMRESCO, Cat. No. 0231-500ML; 384-well cell culture plates were purchased from Corning, Cat. No. 3830; white-bottomed, opaque 384-well assay plates were purchased from Corning, Cat. No. 3570. CellTiter Glo-3D) kit was purchased from Promega. Cat. No. G9683; cell counter was purchased from CHEMOMETEC, model: NC-200: microplate reader was purchased from PerkinElmer, model: EnVision.
MIA PaCa-2, a human pancreatic cancer cell strain endogenously containing a KRAS^G12C mutation, was cultured in a complete medium containing DMEM+10% FBS+2.5% Horse serum+1% PS. AsPC-1, a human pancreatic cancer cell strain endogenously containing a […] mutation, was cultured in a complete medium containing RPMI-1640+10% FBS+1% PS. NCI-H441 cells, a human lung cancer cell strain endogenously containing a […] mutation, were cultured in a complete medium containing RPMI-1640+10% FBS+1% PS. NCI-H1975, a KRAS wild-type human lung cancer cell strain whose cell proliferation depends on KRAS activity, was cultured in a complete medium containing RPMI-1640+10% FBS+1% PS.
The cells were digested with trypsin (containing EDTA), collected in their respective low-serum complete media containing 2% FBS (for MIA Paca-2 cell culture: DMEM+2% FBS+0.5% Horse serum+1% PS), and counted. After the cell density was adjusted as required, 200 MIA PaCa-2 cells, 800 AsPC-1 cells, 800 NCI-H441 cells, or 400 NCI-H1975 cells per well were seeded into a 384-well cell culture plate, with the volume of the medium in each well being 45 μL. The cell culture plate was incubated in an incubator at 37° C. with 5% CO2, overnight. A series of 3.16-fold gradient dilutions of a 1000× compound stock solution were prepared with DMSO, and then diluted 100-fold with the complete medium containing 2% FBS described above to give 10- compound stock solutions. On the day after cell seeding, 5 μL of the 10- compound stock solution was added to each cell culture well. As a result, the final concentration of the compound in the cell culture well became 1×, and the DMSO content in the well was 0.1%. In addition to the compound-treated wells described above, cell-containing DMSO control wells (with 5 μL of the complete medium containing 1% DMSO added to each well) and cell-free medium control wells (containing 50 μL of the complete medium with 2% FBS) were also set. The culture plate was incubated in an incubator at 37° C. with 5% CO2 for another 5 days, and then 30 μL of CellTiter-Glo working solution was added to each well. The mixture was well mixed, incubated for 30 min, left to stand at room temperature for 30 min, and then transferred to a white-bottomed, opaque 384-well assay plate at 40 μL/well. The chemiluminescence values (RLU) were measured using a microplate reader, and the cell proliferation inhibition rate for each well was calculated: IR (%)=(RLUDMSO—RLUcompound)/(RLUDMSO−RLUblank)×100%, where RLUDMSO is the average RLU signal value from the DMSO control well samples, RLUblank is the average RLU signal value from the medium control well samples, and RLUcompound is the RLU signal value from the compound-treated well samples. […]

Experiment [4] has as its system NCI-H441 cells. Briefly: 3D cell proliferation assay (CellTiter Glo-3D), NCI-H441. As to conditions: medium with 2% FBS, read-out: H441 AP IC50. The method, boiled down: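 NCI-H441 ([…] lung) and AsPC-1 (KRAS G12D pancreatic) cells, 800 per well, were seeded in RPMI-1640 with 2% FBS and dosed next day with 3.16-fold compound dilutions (0.1% DMSO). After 5 days at 37 °C, CellTiter-Glo 3D luminescence gave inhibition versus DMSO and blank; IC50 from four-parameter fit.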

The mark [5] stands for this setting: Homo sapiens, ASPC1, 3D cell proliferation (CellTiter Glo-3D).
Where [6] appears, read: Homo sapiens, NCI-H441, 3D cell proliferation (CellTiter Glo-3D).
Setting [7] is: 3D cell proliferation (CellTiter Glo-3D).

Like-named read-outs stand apart in the source and are kept apart here.

Turning to `CCn1c(-c2cc(C#CCN3CCCNCC3)cnc2[C@H](C)OC)c2c3cc(ccc31)-c1csc(n1)C[C@H](NC(=O)[C@H]1[C@H](C)[C@@H]1C)C(=O)N1CCC[C@H](N1)C(=O)OCC(C)(C)C2` (atropisomer, axis not shown; (Ra)) [Compound Z951], the IC50 worked out at 0.5 nM in experiment [1] (Homo sapiens, NCI-H441, 3 h); 0.42 nM in experiment [2] (Homo sapiens, ASPC1, 3 h); 0.36 nM in experiment [3] (setting [5]); 0.43 nM in experiment [4] (setting [6]).
As for `CCn1c(-c2cc(N3CCN(C)CC3)cnc2[C@H](C)OC)c2c3cc(ccc31)-c1csc(n1)C[C@H](Nc1nnc3ccc(C)cn13)C(=O)N1CCC[C@H](N1)C(=O)OCC(C)(C)C2` (atropisomer, axis not shown; (Ra)) [Compound Z434, (6^3S,4S,Z)-1^1-ethyl-(Ra)-1^2-(2-((S)-1-methoxyethyl)-5-(4-methylpiperazin-1-yl)pyridin-3-yl)-10,10-dimethyl-4-((6-methyl-[1,2,4]triazolo[4,3-a]pyridin-3-yl)amino)-6^1,6^2,6^3,6^4,6^5,6^6-hexahydro-1^1H-8-oxa-2(4,2)-thiazola-1(5,3)-indola-6(1,3)-pyridazinacycloundecaphane-5,7-dione], the IC50 in experiment [1] (Homo sapiens, NCI-H441, 3 h) amounted to 17.5 nM; in experiment [2] (Homo sapiens, ASPC1, 3 h), 69.4 nM; in experiment [3] (setting [5]) it was 104 nM; in experiment [4] (setting [6]), 18.1 nM.
Regarding `CCn1c(-c2cc(N(C)CC3COCCN3C)cnc2[C@H](C)OC)c2c3cc(ccc31)-c1csc(n1)C[C@H](NC(=O)[C@H]1[C@H](C)[C@@H]1C)C(=O)N1CCC[C@H](N1)C(=O)OCC(C)(C)C2` (stereo partly drawn) [Compound Z76, (1r,2R,3S)—N-((6^3S,4S,Z)-1^1-ethyl-1^2-(2-((S)-1-methoxyethyl)-5-(methyl((4-methylmorpholin-3-yl)methyl)amino)pyridin-3-yl)-10,10-dimethyl-5,7-dioxo-6^1,6^2,6^3,6^4,6^5,6^6-hexahydro-11H-8-oxa-2(4,2)-thiazola-1(5,3)-indola-6(1,3)-pyridazinacycloundecaphane-4-yl)-2,3-dimethylcyclopropane-1-carboxamide], the IC50 in experiment [1] (Homo sapiens, NCI-H441, 3 h) turned out to be 19 nM; in experiment [2] (Homo sapiens, ASPC1, 3 h), 19.2 nM; in experiment [3] (setting [5]) it was 30.3 nM; in experiment [4] (setting [6]) it was 29.9 nM.
As to `CCn1c(-c2cc(OCCN3CCS(=O)(=O)C(C)(C)C3)cnc2[C@H](C)OC)c2c3cc(ccc31)-c1csc(n1)C[C@H](NC(=O)[C@H]1C[C@@H]1C)C(=O)N1CCC[C@H](N1)C(=O)OCC(C)(C)C2` (atropisomer, axis not shown; (Ra)) [Compound Z665], the IC50 was determined as 0.11 nM in experiment [1], 0.32 nM in experiment [2], 0.78 nM in experiment [3] (setting [7]) and 0.21 nM in experiment [4] (setting [7]).
For the compound `CO[C@@H](C)c1ncc(OCCN2CCS(=O)(=O)CC2)cc1-c1c2c3cc(ccc3n1CC(F)(F)F)-c1csc(n1)C[C@H](NC(=O)[C@H]1C[C@@H]1C)C(=O)N1CCC[C@H](N1)C(=O)OCC(C)(C)C2` (atropisomer, axis not shown; (Ra)) [Compound Z677, (1S,2S)—N-((6^3S,4S,Z)—(Ra)-1^2-(5-(2-(1,1-dioxidothiomorpholino)ethoxy)-2-((S)-1-methoxyethyl)pyridin-3-yl)-10,10-dimethyl-5,7-dioxo-1^1-(2,2,2-trifluoroethyl)-6^1,6^2,6^3,6^4,6^5,6^6-hexahydro-1^1H-8-oxa-2(4,2)-thiazola-1(5,3)-indola-6(1,3)-pyridazinacycloundecaphane-4-yl)-2-methylcyclopropane-1-carboxamide], the IC50 in experiment [1] (Homo sapiens, NCI-H441, 3 h) came out at 0.29 nM; in experiment [2] (Homo sapiens, ASPC1, 3 h), 0.35 nM; in experiment [3] (setting [5]), 0.53 nM; in experiment [4] (setting [6]), 0.2 nM.
As for `CCn1c(-c2cc(CC3(N4CCS(=O)(=O)CC4)CC3)cnc2[C@H](C)OC)c2c3cc(ccc31)-c1csc(n1)C[C@H](NC(=O)[C@H]1[C@H](C)[C@@H]1C)C(=O)N1CCC[C@H](N1)C(=O)OCC(C)(C)C2` (atropisomer, axis not shown; (Ra)) [Compound Z484, (1r,2R,3S)—N-((6^3S,4S,Z)—(Ra)-1^2-(5-((1-(1,1-dioxidothiomorpholino)cyclopropyl)methyl)-2-((S)-1-methoxyethyl)pyridin-3-yl)-1^1-ethyl-10,10-dimethyl-5,7-dioxo-6^1,6^2,6^3,6^4,6^5,6^6-hexahydro-1^1H-8-oxa-2(4,2)-thiazola-1(5,3)-indola-6(1.3)-pyridazinacycloundecaphane-4-yl)-2,3-dimethylcyclopropane-1-carboxamide], the IC50 in experiment [1] (Homo sapiens, NCI-H441, 3 h) was 0.67 nM; in experiment [2] (Homo sapiens, ASPC1, 3 h) it was 1.3 nM; in experiment [3] (setting [5]) it was 3.19 nM; in experiment [4] (setting [6]) it was 0.59 nM.
For `CCn1c(-c2cc(OCCN3CCOC4(CC4)C3)cnc2[C@H](C)OC)c2c3cc(ccc31)-c1csc(n1)C[C@H](NC(=O)[C@H]1[C@H](C)[C@@H]1C)C(=O)N1CCC[C@H](N1)C(=O)OCC1(CC1)C2` (atropisomer, axis not shown; (Ra)) [Compound Z375], the IC50 turned out to be 0.91 nM in experiment [1] (Homo sapiens, NCI-H441, 3 h); 3.92 nM in experiment [2] (Homo sapiens, ASPC1, 3 h); 6.9 nM in experiment [3] (setting [5]); 3.7 nM in experiment [4] (setting [6]).
For `CCn1c(-c2cc(C#CC34CCCN3CCC4)cnc2[C@H](C)OC)c2c3cc(ccc31)-c1csc(n1)C[C@H](NC(=O)[C@H]1[C@H](C)[C@@H]1C)C(=O)N1CCC[C@H](N1)C(=O)OCC(C)(C)C2` (atropisomer, axis not shown; (Ra)) [Compound Z794, (1r,2R,3S)—N-((6^3S,4S,Z)—(Ra)-1^2-ethyl-1^2-(2-((S)-1-methoxyethyl)-5-((tetrahydro-1H-pyrrolizin-7a(5H)-yl)ethynyl)pyridin-3-yl)-10,10-dimethyl-5,7-dioxo-6^1,6^2,6^3,6^4,6^5,6^6-hexahydro-1^1H-8-oxa-2(4,2)-thiazola-1(5,3)-indola-6(1,3)-pyridazinacycloundecaphane-4-yl)-2,3-dimethylcyclopropane-1-carboxamide], the IC50 in experiment [1] (Homo sapiens, NCI-H441, 3 h) was 0.49 nM; in experiment [3] (setting [5]) it was 2.07 nM; in experiment [4] (setting [6]), 0.66 nM.
